ΔTm and binding data for one compound are collected here from article PMC9109478 (2022).

For assay [1], the system named is hRAS1 (DNA, G4) TCGGGTTGCGGGCGCAGGGCACGGGCG
Briefly: CD melting. The note with it: K+ 100 mM; 10 mM Tris, pH 7.4; G4 15 μM; TPE-B : G4 1:1.

In assay [2] the test system is NRAS (RNA, G4) UGUGGGAGGGGCGGGUCUGGG
Briefly: CD melting. The note with it: K+ 100 mM; 10 mM Tris, pH 7.4; NRAS 5 μM; TPE-B : G4 1:1.

The subject of assay [3] is ODN-51 (DNA, G4) TAGGGTTAGGGTTAGGGTTAGGG
Briefly: ESI-MS. The conditions noted are these: K+ 1 mM; 100 mM TMAA, 50% methanol; 20 μM strand.

Assay [4] relates to hRAS1 (DNA, G4) TCGGGTTGCGGGCGCAGGGCACGGGCG
Description: ESI-MS. The conditions noted are these: K+ 1 mM; 100 mM TMAA, 50% methanol; 20 μM strand.

In the case of `CN(C)c1cc[n+](CCCCOc2ccc(C(=C(c3ccc(OCCCC[n+]4ccc(N(C)C)cc4)cc3)c3ccc(OCCCC[n+]4ccc(N(C)C)cc4)cc3)c3ccc(OCCCC[n+]4ccc(N(C)C)cc4)cc3)cc2)cc1`, the values for the ΔTm in assay [1] and in assay [2] were 0.07 °C and 13.51 °C, respectively. Further, the binding result in assay [3] and in assay [4] was “weak” in each case.
